Results as given in patent US9296787B2, “Antitumor peptide and use thereof” (priority 2011, dated 2016).
Like-named read-outs stand apart in the source and are kept apart here. Positions of bridges follow the written chain, without caps; N, C: chain ends. Residues, ends and D or L forms follow the SMILES beside them. No end group written: not given here.

How the values were obtained:
Type in all cases: cell-based
[1] = tested on: human alveolar basal epithelial adenocarcinoma cells, A549; conditions: for antitumor activity (tumor cell proliferation-inhibiting activity), in words: A549, 50 μM, 24 hours, summary of Table 5; for A450(-A620) After 24 hers: A549, peptide 50 μM, WST-8 absorbance after 24 hours
Protocol: (§1) As the tumor cells tested, a commercial mouse neuroblastoma cell line (N1E-115) was used. The cell line was cultured beforehand in a DMEM medium (i.e. Dulbecco MEM medium (DMEM medium, a Gibco product) containing 10% fetal bovine serum (FBS, a Gibco product), 2 mM of L-glutamine, 50 unit/mL of penicillin, and 50 μg/mL of streptomycin), and the number of cells per well in a 96-well plate was adjusted to approximately 5×10^3. The volume of the medium for this was 100 μL per well.
(§2) Subsequently, the stock solution of each sample peptide shown in Table 3 was added to each well to a peptide concentration in the well of 50 μM or 100 μM.
(§3) After the sample peptides were added as described above, the 96-well plate was placed in a CO2 incubator and cultured without agitation at 37° C. under 5% CO2. At the time of the peptide addition (at the start of treatment) and at 6 hours or 24 hours from the peptide addition and the start of incubation, the viability status of the cultured cells tested was analyzed with a commercial colorimetric assay kit. In particular, to each cell-culturing well, “water-soluble tetrazolium salt (WST-8)” was added as a colorimetric reagent; after two hours of incubation following the addition, the cell culture medium supplied with the colorimetric reagent was collected; and the level of inhibition of cell proliferation was evaluated by colorimetry, measuring the absorbance at a wavelength of 450 nm (values corrected with the absorbance at a wavelength of 620 nm, A450-A620) based on reduction of tetrazolium salt. Based on the absorbance at the time of the sample peptide addition (at the start of treatment), the percent decrease in the absorbance after 6 hours or 24 hours was determined as the cell proliferation inhibition rate (%).
Cells forming a […] (human alveolar basal epithelial adenocarcinoma cells, A549) were substituted for the tumor cells tested and the same test as Example 2 described above was carried out. In the present example, the peptides of Samples 1 to 13, 15 to 22, 24, 29, 35 and 40 were used.

[2] = tested on: HeLa cells (HeLa S3); conditions: WST-8 absorbance after 24 hours
Protocol: as §1, §2, §3
HeLa cells (HeLa S3) were substituted for the tumor cells tested and the same test as Example 2 described above was carried out. In the present example, the peptides of Samples 1 to 7, 9, 10, 13, 16, 21 and 35 were used.

[3] = tested on: mouse neuroblastoma cell line (N1E-115); conditions: for antitumor activity (tumor cell proliferation-inhibiting activity), in words: N1E-115, 50 or 100 μM, summary of Table 3; for A450(-A620) After 24 hers: WST-8 absorbance after 24 hours
Protocol: Some of the sample peptides obtained in Example 1 were tested for antitumor activity against target cultured tumor cells. Details of the assay are as described below.
as §1, §2, §3

Compound	antitumor activity (tumor cell proliferation-inhibiting activity), in words [1]	A450(-A620) After 24 hers [1]	A450(-A620) After 24 hers ([2]; HeLa S3, peptide 50 μM)	A450(-A620) After 24 hers ([2]; HeLa S3, peptide 100 μM)	antitumor activity (tumor cell proliferation-inhibiting activity), in words [3]	A450(-A620) After 24 hers ([3]; N1E-115, peptide 50 μM)	A450(-A620) After 24 hers ([3]; N1E-115, peptide 100 μM)
CSCC[C@@H]1NC(=O)[C@H](CCCCN)NC(=O)[C@H]([C@@H](C)O)NC(=O)[C@H](CCC(N)=O)NC(=O)CNC(=O)[C@H](CC(C)C)NC(=O)[C@@H](N)CSSC[C@@H](C(=O)O)NC(=O)[C@H](CCCNC(=N)N)NC1=O [Sample 3, CLGQTKMRC] (H-CLGQTKMRC-OH; disulfide 1-9; N-terminus and C-terminus assumed)	high antitumor activity	1.7022	0.1194	0.0997	–	–	–
N=C(N)NCCC[C@@H]1NC(=O)[C@H](Cc2c[nH]cn2)NC(=O)CNC(=O)[C@@H](N)CSSC[C@@H](C(=O)O)NC(=O)[C@H](Cc2ccc(O)cc2)NC(=O)[C@H](CCC(N)=O)NC(=O)[C@H](Cc2ccc(O)cc2)NC(=O)[C@@H]2CCCN2C1=O [Sample 4, CGHRPYQYC] (H-CGHRPYQYC-OH; disulfide 1-9; N-terminus and C-terminus assumed)	–	1.7663	0.0955	0.0937	–	–	–
CC[C@H](C)[C@@H]1NC(=O)[C@H](Cc2c[nH]cn2)NC(=O)[C@@H](N)CSSC[C@@H](C(=O)O)NC(=O)[C@H](C)NC(=O)[C@H](CCC(N)=O)NC(=O)[C@H](C)NC(=O)[C@H](Cc2c[nH]cn2)NC(=O)[C@H](CC(C)C)NC1=O [Sample 8, CHILHAQAC] (H-CHILHAQAC-OH; disulfide 1-9; N-terminus and C-terminus assumed)	–	1.7885	–	–	–	–	–
CSCC[C@@H]1NC(=O)[C@@H]2CCCN2C(=O)[C@H](CCCNC(=N)N)NC(=O)[C@H](CCCCN)NC(=O)[C@H](CCC(=O)O)NC(=O)[C@H](Cc2ccc(O)cc2)NC(=O)[C@H](CO)NC(=O)[C@@H](N)CSSC[C@@H](C(=O)O)NC1=O [Sample 11, CSYEKRPMC] (H-CSYEKRPMC-OH; disulfide 1-9; N-terminus and C-terminus assumed)	high antitumor activity	1.6741	–	–	–	–	–
CC(C)C[C@@H]1NC(=O)[C@@H](N)CSSC[C@@H](C(=O)O)NC(=O)[C@H](CO)NC(=O)[C@H]([C@@H](C)O)NC(=O)[C@H](Cc2ccc(O)cc2)NC(=O)[C@H](CO)NC(=O)[C@H](CCCCN)NC(=O)[C@H]([C@@H](C)O)NC1=O [Sample 12, CLTKSYTSC] (H-CLTKSYTSC-OH; disulfide 1-9; N-terminus and C-terminus assumed)	–	1.9165	–	–	–	–	–
CC(C)C[C@H](NC(=O)[C@@H](NC(=O)[C@H](CCCNC(=N)N)NC(=O)[C@H](CCCCN)NC(=O)[C@H](CCCCN)NC(=O)[C@@H]1CSSC[C@H](N)C(=O)N[C@@H](CO)C(=O)N[C@@H](CO)C(=O)N[C@@H](C)C(=O)N[C@@H]([C@@H](C)O)C(=O)NCC(=O)N[C@@H](CCCCN)C(=O)N[C@@H](CO)C(=O)N1)[C@@H](C)O)C(=O)N[C@@H](CCCNC(=N)N)C(=O)N[C@@H](CCCCN)C(=O)N[C@@H](CC(N)=O)C(=O)N[C@@H](CC(=O)O)C(=O)N[C@@H](CCCNC(=N)N)C(=O)N[C@@H](CCCCN)C(=O)N[C@@H](CCCCN)C(=O)N[C@@H](CCCNC(=N)N)C(=O)O [Sample 23] (H-CSSATGKSCKKRTLRKNDRKKR-OH; disulfide 1-9; N-terminus and C-terminus assumed)	–	–	–	–	high antitumor activity	0.4127	0.3841
CC(C)C[C@H](NC(=O)[C@@H](NC(=O)[C@H](CCCNC(=N)N)NC(=O)[C@H](CCCCN)NC(=O)[C@H](CCCCN)NC(=O)[C@@H]1CSSC[C@H](N)C(=O)N[C@@H](CC(C)C)C(=O)N[C@@H](C)C(=O)N2CCC[C@H]2C(=O)N[C@@H](CO)C(=O)N2CCC[C@H]2C(=O)N[C@@H](CO)C(=O)N[C@@H](CCCCN)C(=O)N1)[C@@H](C)O)C(=O)N[C@@H](CCCNC(=N)N)C(=O)N[C@@H](CCCCN)C(=O)N[C@@H](CC(N)=O)C(=O)N[C@@H](CC(=O)O)C(=O)N[C@@H](CCCNC(=N)N)C(=O)N[C@@H](CCCCN)C(=O)N[C@@H](CCCCN)C(=O)N[C@@H](CCCNC(=N)N)C(=O)O [Sample 24] (H-CLAPSPSKCKKRTLRKNDRKKR-OH; disulfide 1-9; N-terminus and C-terminus assumed)	high antitumor activity	1.5820	–	–	high antitumor activity	0.3492	0.3198
CC(C)C[C@H](NC(=O)[C@@H](NC(=O)[C@H](CCCNC(=N)N)NC(=O)[C@H](CCCCN)NC(=O)[C@H](CCCCN)NC(=O)[C@@H]1CSSC[C@H](N)C(=O)NCC(=O)N[C@@H](Cc2c[nH]cn2)C(=O)N[C@@H](CCCNC(=N)N)C(=O)N2CCC[C@H]2C(=O)N[C@@H](Cc2ccc(O)cc2)C(=O)N[C@@H](CCC(N)=O)C(=O)N[C@@H](Cc2ccc(O)cc2)C(=O)N1)[C@@H](C)O)C(=O)N[C@@H](CCCNC(=N)N)C(=O)N[C@@H](CCCCN)C(=O)N[C@@H](CC(N)=O)C(=O)N[C@@H](CC(=O)O)C(=O)N[C@@H](CCCNC(=N)N)C(=O)N[C@@H](CCCCN)C(=O)N[C@@H](CCCCN)C(=O)N[C@@H](CCCNC(=N)N)C(=O)O [Sample 26] (H-CGHRPYQYCKKRTLRKNDRKKR-OH; disulfide 1-9; N-terminus and C-terminus assumed)	–	–	–	–	high antitumor activity	0.4550	0.3643
CC[C@H](C)[C@@H]1NC(=O)[C@H](CCC(=O)O)NC(=O)[C@@H](N)CSSC[C@@H](C(=O)N[C@@H](CCCCN)C(=O)N[C@@H](CCCCN)C(=O)N[C@@H](CCCNC(=N)N)C(=O)N[C@H](C(=O)N[C@@H](CC(C)C)C(=O)N[C@@H](CCCNC(=N)N)C(=O)N[C@@H](CCCCN)C(=O)N[C@@H](CC(N)=O)C(=O)N[C@@H](CC(=O)O)C(=O)N[C@@H](CCCNC(=N)N)C(=O)N[C@@H](CCCCN)C(=O)N[C@@H](CCCCN)C(=O)N[C@@H](CCCNC(=N)N)C(=O)O)[C@@H](C)O)NC(=O)[C@H]([C@@H](C)O)NC(=O)[C@H](CCCNC(=N)N)NC(=O)[C@H](CCCCN)NC(=O)[C@H](C)NC(=O)[C@H](CO)NC1=O [Sample 29] (H-CEISAKRTCKKRTLRKNDRKKR-OH; disulfide 1-9; N-terminus and C-terminus assumed)	high antitumor activity	1.6577	–	–	–	–	–
EFEYFHPATFRL [Sample 20, EFEYFHPATFRL]	–	1.8115	–	–	–	0.5772	0.6481
EFEYFHPATFRLKKRTLRKNDRKKR [Sample 42]	–	–	–	–	high antitumor activity	0.5145	0.4114
GAVTYSRISGQY [Sample 22, GAVTYSRISGQY]	–	1.9711	–	–	–	–	–
GPHHYWYHLRLPKKRTLRKNDRKKR [Sample 38]	–	–	–	–	high antitumor activity	0.4605	0.3592
GPHLGMNQRRRPKKRTLRKNDRKKR [Sample 43]	–	–	–	–	high antitumor activity	0.4784	0.4110
NMTTYPMHNNTV [Sample 18, NMTTYPMHNNTV]	–	1.6767	–	–	–	0.6054	0.5999
NMTTYPMHNNTVKKRTLRKNDRKKR [Sample 40]	high antitumor activity	1.5890	–	–	–	–	–
QSPVNHHYHYHI [Sample 17, QSPVNHHYHYHI]	–	1.9428	–	–	–	0.6019	0.5818
SLLPHSNHAKHY [Sample 19, SLLPHSNHAKHY]	–	1.8271	–	–	–	–	–
TPSLPPTMFRLT [Sample 15, TPSLPPTMFRLT]	–	1.6022	–	–	–	–	–
